# Test results: patent publication US9302988B2, “Fluoromethyl-substituted pyrrole carboxamides” (GRÜNENTHAL GMBH, priority 2012, dated 2016)
# Target: T1, Human CaV2.2 channels (Homo sapiens, UniProt Q00975)
# T1 construct: expressed in transfected cells
# Test: Fluorescent assay for CaV2.2 channels using potassium depolarization to induce channel opening (FLIPR, Fluo-4)
# Format: cell-based
# Conditions: 3 μM test compound, 30 mM KCl, HEK293 cells stably expressing human CaV2.2; read-out: %-Inhib (CaV2.2) @3 μM @30 mM KCl
# How it was run: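 Channel block was read as the baseline-normalized peak Ca²⁺ signal (Fluo-4, 480/535 nm) after a high-KCl depolarizing addition (210 mM KCl buffer). Beforehand, compound sat 15 min at 25 °C on HEK293 cells carrying human CaV2.2, α2δ/β subunits and Kir2.3, in pH 7.4 buffer with 30 mM KCl.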
# T1 sequence (Q00975 whole entry): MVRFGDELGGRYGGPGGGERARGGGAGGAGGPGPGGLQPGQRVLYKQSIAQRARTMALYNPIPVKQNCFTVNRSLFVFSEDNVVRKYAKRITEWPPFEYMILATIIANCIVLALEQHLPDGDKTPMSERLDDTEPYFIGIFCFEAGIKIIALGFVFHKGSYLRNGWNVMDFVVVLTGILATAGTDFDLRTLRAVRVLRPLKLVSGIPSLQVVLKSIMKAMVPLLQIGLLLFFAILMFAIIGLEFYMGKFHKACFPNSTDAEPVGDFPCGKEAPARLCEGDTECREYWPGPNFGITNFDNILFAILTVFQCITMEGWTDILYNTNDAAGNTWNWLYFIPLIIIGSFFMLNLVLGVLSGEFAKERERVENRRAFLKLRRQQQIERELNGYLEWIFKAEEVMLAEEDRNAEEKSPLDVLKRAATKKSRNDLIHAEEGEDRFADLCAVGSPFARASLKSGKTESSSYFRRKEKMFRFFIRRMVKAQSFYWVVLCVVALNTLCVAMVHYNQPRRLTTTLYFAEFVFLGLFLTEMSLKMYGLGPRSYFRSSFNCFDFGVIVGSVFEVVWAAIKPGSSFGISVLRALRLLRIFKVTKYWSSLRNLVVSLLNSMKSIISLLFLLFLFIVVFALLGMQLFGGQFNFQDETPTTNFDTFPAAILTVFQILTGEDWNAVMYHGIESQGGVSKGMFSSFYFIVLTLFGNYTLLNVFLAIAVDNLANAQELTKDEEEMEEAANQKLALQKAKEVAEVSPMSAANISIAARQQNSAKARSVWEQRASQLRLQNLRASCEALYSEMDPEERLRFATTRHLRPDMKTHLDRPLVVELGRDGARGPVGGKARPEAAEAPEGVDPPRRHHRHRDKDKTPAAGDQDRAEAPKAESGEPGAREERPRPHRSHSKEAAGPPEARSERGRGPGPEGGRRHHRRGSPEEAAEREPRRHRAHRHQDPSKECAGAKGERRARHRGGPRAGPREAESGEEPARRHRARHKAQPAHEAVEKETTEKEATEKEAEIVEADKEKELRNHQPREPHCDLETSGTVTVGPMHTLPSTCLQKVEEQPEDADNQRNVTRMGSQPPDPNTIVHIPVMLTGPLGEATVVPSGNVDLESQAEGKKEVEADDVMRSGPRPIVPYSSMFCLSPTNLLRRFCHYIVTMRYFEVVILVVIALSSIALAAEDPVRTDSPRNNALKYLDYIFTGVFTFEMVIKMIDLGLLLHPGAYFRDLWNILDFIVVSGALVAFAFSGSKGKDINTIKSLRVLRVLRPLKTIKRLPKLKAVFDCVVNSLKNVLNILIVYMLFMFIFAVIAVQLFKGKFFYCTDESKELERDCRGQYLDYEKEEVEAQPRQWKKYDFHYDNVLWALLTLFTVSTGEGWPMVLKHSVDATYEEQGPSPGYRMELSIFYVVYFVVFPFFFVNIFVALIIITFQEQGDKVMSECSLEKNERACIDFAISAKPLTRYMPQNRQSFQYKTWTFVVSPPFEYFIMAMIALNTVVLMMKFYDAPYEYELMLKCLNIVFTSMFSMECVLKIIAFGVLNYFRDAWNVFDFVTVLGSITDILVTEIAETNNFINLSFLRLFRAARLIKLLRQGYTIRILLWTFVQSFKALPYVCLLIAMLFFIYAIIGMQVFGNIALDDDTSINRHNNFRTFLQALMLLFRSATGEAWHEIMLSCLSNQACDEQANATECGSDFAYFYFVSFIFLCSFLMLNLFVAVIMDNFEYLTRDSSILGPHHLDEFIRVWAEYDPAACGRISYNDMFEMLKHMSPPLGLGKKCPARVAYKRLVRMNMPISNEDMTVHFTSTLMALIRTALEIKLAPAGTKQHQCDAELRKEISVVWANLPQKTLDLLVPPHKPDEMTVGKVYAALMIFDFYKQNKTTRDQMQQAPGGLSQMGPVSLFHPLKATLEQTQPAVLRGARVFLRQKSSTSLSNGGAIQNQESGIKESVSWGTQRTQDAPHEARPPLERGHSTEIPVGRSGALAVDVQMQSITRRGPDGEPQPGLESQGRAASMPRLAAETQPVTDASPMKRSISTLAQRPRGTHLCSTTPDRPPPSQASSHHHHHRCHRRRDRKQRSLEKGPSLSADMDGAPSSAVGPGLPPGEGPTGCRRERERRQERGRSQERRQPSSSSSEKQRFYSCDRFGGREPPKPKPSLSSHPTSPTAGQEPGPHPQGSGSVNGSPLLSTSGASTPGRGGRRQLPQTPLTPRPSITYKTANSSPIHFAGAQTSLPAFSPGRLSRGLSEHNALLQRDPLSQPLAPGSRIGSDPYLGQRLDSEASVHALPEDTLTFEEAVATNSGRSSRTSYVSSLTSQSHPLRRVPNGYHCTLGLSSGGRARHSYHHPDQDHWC
# T1 sequence (P54289 25-1103, further chain): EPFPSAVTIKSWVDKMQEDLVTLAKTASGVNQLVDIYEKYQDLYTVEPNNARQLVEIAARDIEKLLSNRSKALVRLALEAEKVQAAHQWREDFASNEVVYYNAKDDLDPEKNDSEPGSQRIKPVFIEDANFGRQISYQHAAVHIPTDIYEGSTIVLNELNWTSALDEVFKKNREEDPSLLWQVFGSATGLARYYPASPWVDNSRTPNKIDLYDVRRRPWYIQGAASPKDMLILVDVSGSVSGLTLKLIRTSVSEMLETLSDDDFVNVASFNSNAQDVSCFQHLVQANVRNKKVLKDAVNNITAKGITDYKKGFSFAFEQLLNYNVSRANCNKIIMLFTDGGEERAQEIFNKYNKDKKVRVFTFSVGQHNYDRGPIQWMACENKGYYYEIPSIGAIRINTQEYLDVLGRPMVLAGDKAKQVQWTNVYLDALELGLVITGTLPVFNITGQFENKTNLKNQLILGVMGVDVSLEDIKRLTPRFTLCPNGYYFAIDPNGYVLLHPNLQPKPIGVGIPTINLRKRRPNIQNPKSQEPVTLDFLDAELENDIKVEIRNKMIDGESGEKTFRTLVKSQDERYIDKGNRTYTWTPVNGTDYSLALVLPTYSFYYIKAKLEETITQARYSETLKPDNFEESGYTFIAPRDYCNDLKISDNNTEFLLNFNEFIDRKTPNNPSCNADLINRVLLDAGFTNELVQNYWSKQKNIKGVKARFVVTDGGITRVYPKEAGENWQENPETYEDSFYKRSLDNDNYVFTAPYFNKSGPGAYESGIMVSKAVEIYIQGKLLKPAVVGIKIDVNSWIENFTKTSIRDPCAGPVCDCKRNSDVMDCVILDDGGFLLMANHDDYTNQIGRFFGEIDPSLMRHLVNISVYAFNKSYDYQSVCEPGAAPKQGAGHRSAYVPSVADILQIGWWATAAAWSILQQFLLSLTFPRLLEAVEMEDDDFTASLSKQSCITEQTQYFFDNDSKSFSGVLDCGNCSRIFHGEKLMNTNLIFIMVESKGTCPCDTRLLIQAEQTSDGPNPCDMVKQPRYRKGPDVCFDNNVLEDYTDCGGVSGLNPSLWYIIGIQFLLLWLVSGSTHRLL
# T1 sequence (P54284 whole entry, further chain): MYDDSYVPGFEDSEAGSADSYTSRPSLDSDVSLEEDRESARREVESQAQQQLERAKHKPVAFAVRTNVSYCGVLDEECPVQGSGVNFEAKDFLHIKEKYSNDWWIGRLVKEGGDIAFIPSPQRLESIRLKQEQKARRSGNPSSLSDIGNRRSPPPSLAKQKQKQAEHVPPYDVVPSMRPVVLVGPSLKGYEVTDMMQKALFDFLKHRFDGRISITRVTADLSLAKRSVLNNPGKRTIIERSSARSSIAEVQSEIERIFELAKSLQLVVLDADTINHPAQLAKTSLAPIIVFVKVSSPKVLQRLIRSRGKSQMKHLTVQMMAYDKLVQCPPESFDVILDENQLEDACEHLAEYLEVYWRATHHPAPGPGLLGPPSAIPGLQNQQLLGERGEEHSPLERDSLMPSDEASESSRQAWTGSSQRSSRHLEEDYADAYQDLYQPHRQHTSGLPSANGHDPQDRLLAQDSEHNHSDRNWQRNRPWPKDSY
structure (smiles),measurement,value
"Cc1c(-c2ccc(Cl)cc2F)c(C(=O)N(C)C2CC2)n(Cc2ccccc2)c1C(F)(F)F [SC-159, 1-Benzyl-3-(4-chloro-2-fluoro-phenyl)-N-cyclopropyl-N,4-dimethyl-5-(trifluoromethyl)-1H-pyrrole-2-carboxylic acid amide]",inhibition at 3 µM,> 95%
"Cc1c(-c2ccc(Cl)cc2F)c(C(=O)N2CCS(=O)(=O)CC2)n(Cc2ccccc2)c1C(F)(F)F [SC-173, [1-Benzyl-3-(4-chloro-2-fluoro-phenyl)-4-methyl-5-(trifluoromethyl)-1H-pyrrol-2-yl]-(1,1-dioxo-[1,4]thiazinan-4-yl)-methanone]",inhibition at 3 µM,> 95%
"Cc1c(-c2ccc(OCC(F)(F)F)cc2)c(C(=O)N(C)CC(C)(C)C)n(Cc2ccccc2)c1C(F)(F)F [SC-260, 1-Benzyl-N,4-dimethyl-N-neopentyl-3-(4-(2,2,2-trifluoroethoxy)phenyl)-5-(trifluoromethyl)-1H-pyrrole-2-carboxamide]",inhibition at 3 µM,40 to 75%
"Cc1c(-c2ccc(Cl)cc2)c(C(=O)N(C)CC2(CO)CCC2)n(Cc2ccccc2)c1C(F)(F)F [SC-116, 1-Benzyl-3-(4-chlorophenyl)-N-[[1-(hydroxymethyl)-cyclobutyl]-methyl]-N,4-dimethyl-5-(trifluoromethyl)-1H-pyrrole-2-carboxylic acid amide]",inhibition at 3 µM,> 95%
"CN(CCS(C)(=O)=O)C(=O)c1c(-c2ccc(Cl)cc2)cc(C(F)(F)F)n1Cc1ccccc1 [SC-67, 1-Benzyl-3-(4-chlorophenyl)-N-methyl-N-(2-methylsulfonyl-ethyl)-5-(trifluoromethyl)-1H-pyrrole-2-carboxylic acid amide]",inhibition at 3 µM,> 95%
"Cc1c(-c2ccc(Cl)cc2)c(C(=O)N2CCNC(C)(C)C2)n(Cc2ccccc2)c1C(F)(F)F [SC-29, [1-Benzyl-3-(4-chlorophenyl)-4-methyl-5-(trifluoromethyl)-1H-pyrrol-2-yl]-(3,3-dimethyl-piperazin-1-yl)-methanone]",inhibition at 3 µM,> 95%
"Cc1c(-c2ccc(OC(F)(F)F)cc2)c(C(=O)N(C)CC(C)(C)C)n(Cc2ccccc2)c1C(F)(F)F [SC-240, 1-Benzyl-N-(2,2-dimethyl-propyl)-N,4-dimethyl-5-(trifluoromethyl)-3-[4-(trifluoromethyloxy)-phenyl]-1H-pyrrole-2-carboxylic acid amide]",inhibition at 3 µM,30 to 40%
"CCc1c(-c2ccc(Cl)cc2)c(C(=O)N(C)CC(C)(C)C)n(Cc2ccccc2)c1C(F)(F)F [SC-119, 1-Benzyl-3-(4-chlorophenyl)-N-(2,2-dimethyl-propyl)-4-ethyl-N-methyl-5-(trifluoromethyl)-1H-pyrrole-2-carboxylic acid amide]",inhibition at 3 µM,75 to 95%
"Cc1c(-c2ccc(Cl)cc2)c(C(=O)NCCS(C)(=O)=O)n(Cc2ccccc2)c1C(F)(F)F [SC-129, 1-Benzyl-3-(4-chlorophenyl)-4-methyl-N-(2-methylsulfonyl-ethyl)-5-(trifluoromethyl)-1H-pyrrole-2-carboxylic acid amide]",inhibition at 3 µM,75 to 95%
"CN(CCN1CCCC1)CC(C)(C)CN(C)C(=O)c1c(-c2ccc(Cl)cc2)cc(C(F)(F)F)n1Cc1ccccc1 [SC-203, 1-Benzyl-3-(4-chlorophenyl)-N-[2,2-dimethyl-3-[methyl-(2-pyrrolidin-1-yl-ethyl)-amino]-propyl]-N-methyl-5-(trifluoromethyl)-1H-pyrrole-2-carboxylic acid amide]",inhibition at 3 µM,> 95%
"Cc1c(-c2ccc(Cl)cc2)c(C(=O)N(C)CC2CCCCO2)n(Cc2ccccc2)c1C(F)(F)F (stereo not drawn) [SC-138, 1-Benzyl-3-(4-chlorophenyl)-N,4-dimethyl-N-(tetrahydro-pyran-2-yl-methyl)-5-(trifluoromethyl)-1H-pyrrole-2-carboxylic acid amide]",inhibition at 3 µM,75 to 95%
"Cc1cc(CN(C)C(=O)c2c(-c3ccc(Cl)cc3)cc(C(F)(F)F)n2Cc2ccccc2)no1 [SC-205, 1-Benzyl-3-(4-chlorophenyl)-N-methyl-N-[(5-methyl-isoxazol-3-yl)-methyl]-5-(trifluoromethyl)-1H-pyrrole-2-carboxylic acid amide]",inhibition at 3 µM,> 95%
"Cc1c(-c2ccc(F)cc2)c(C(=O)N(C)CC(C)(C)C)n(Cc2ccccc2)c1C(F)(F)F [SC-224, 1-Benzyl-N-(2,2-dimethyl-propyl)-3-(4-fluorophenyl)-N,4-dimethyl-5-(trifluoromethyl)-1H-pyrrole-2-carboxylic acid amide]",inhibition at 3 µM,75 to 95%
"Cc1c(-c2ccc(Cl)cc2)c(C(=O)N2CC(S(C)(=O)=O)C2)n(Cc2ccccc2)c1C(F)(F)F [SC-137, [1-Benzyl-3-(4-chlorophenyl)-4-methyl-5-(trifluoromethyl)-1H-pyrrol-2-yl]-(3-methylsulfonyl-azetidin-1-yl)-methanone]",inhibition at 3 µM,75 to 95%
"Cc1c(-c2ccc(OC(F)(F)F)cc2)c(C(=O)N(C)C(C)(C)CO)n(Cc2ccccc2)c1C(F)(F)F [SC-241, 1-Benzyl-N-(2-hydroxy-1,1-dimethyl-ethyl)-N,4-dimethyl-5-(trifluoromethyl)-3-[4-(trifluoromethyloxy)-phenyl]-1H-pyrrole-2-carboxylic acid amide]",inhibition at 3 µM,> 95%
"Cc1c(-c2ccc(C(F)(F)F)cc2)c(C(=O)N2CC(F)(F)C2)n(Cc2ccccc2)c1C(F)(F)F [SC-96, [1-Benzyl-4-methyl-5-(trifluoromethyl)-3-[4-(trifluoromethyl)-phenyl]-1H-pyrrol-2-yl]-(3,3-difluoro-azetidin-1-yl)-methanone]",inhibition at 3 µM,40 to 75%
"Cc1c(-c2ccc(Cl)cc2)c(C(=O)N2CCOCC2)n(CCOc2ccc(F)cc2)c1C(F)(F)F [SC-51, [3-(4-Chlorophenyl)-1-[2-(4-fluoro-phenoxy)-ethyl]-4-methyl-5-(trifluoromethyl)-1H-pyrrol-2-yl]-morpholin-4-yl-methanone]",inhibition at 3 µM,> 95%
"Cc1c(-c2ccc(Cl)cc2)c(C(=O)N(C)CC2(O)CC2)n(Cc2ccccc2)c1C(F)(F)F [SC-65, 1-Benzyl-3-(4-chlorophenyl)-N-[(1-hydroxy-cyclopropyl)-methyl]-N,4-dimethyl-5-(trifluoromethyl)-1H-pyrrole-2-carboxylic acid amide]",inhibition at 3 µM,> 95%
"Cc1c(-c2ccc(Cl)cc2)c(C(=O)N(C)CCS(=O)(=O)C(C)C)n(Cc2ccccc2)c1C(F)(F)F [SC-130, 1-Benzyl-3-(4-chlorophenyl)-N-[2-(isopropylsulfonyl)-ethyl]-N,4-dimethyl-5-(trifluoromethyl)-1H-pyrrole-2-carboxylic acid amide]",inhibition at 3 µM,> 95%
"Cc1c(-c2ccc(Cl)cc2F)c(C(=O)N(C)C2CCOCC2)n(Cc2ccccc2)c1C(F)(F)F [SC-156, 1-Benzyl-3-(4-chloro-2-fluoro-phenyl)-N,4-dimethyl-N-tetrahydro-pyran-4-yl-5-(trifluoromethyl)-1H-pyrrole-2-carboxylic acid amide]",inhibition at 3 µM,> 95%
"CN(C(=O)c1c(-c2ccc(Cl)cc2)cc(C(F)(F)F)n1Cc1ccccc1)C1CCS(=O)(=O)C1 (stereo not drawn) [SC-83, 1-Benzyl-3-(4-chlorophenyl)-N-(1,1-dioxo-thiolan-3-yl)-N-methyl-5-(trifluoromethyl)-1H-pyrrole-2-carboxylic acid amide]",inhibition at 3 µM,> 95%
"Cc1c(-c2ccc(Cl)cc2)c(C(=O)N(C)CC2(C)COC2)n(Cc2ccccc2)c1C(F)(F)F [SC-60, 1-Benzyl-3-(4-chlorophenyl)-N,4-dimethyl-N-[(3-methyl-oxetan-3-yl)-methyl]-5-(trifluoromethyl)-1H-pyrrole-2-carboxylic acid amide]",inhibition at 3 µM,> 95%
"CN(C(=O)c1c(-c2ccc(Cl)cc2)cc(C(F)(F)F)n1Cc1ccccc1)C1CCS(=O)(=O)CC1 [SC-193, 1-Benzyl-3-(4-chlorophenyl)-N-(1,1-dioxo-thian-4-yl)-N-methyl-5-(trifluoromethyl)-1H-pyrrole-2-carboxylic acid amide]",inhibition at 3 µM,> 95%
"CN(CC(C)(C)C)C(=O)c1c(-c2ccc(Cl)cc2)cc(C(F)(F)F)n1Cc1ccccc1 [SC-02, 1-Benzyl-3-(4-chlorophenyl)-N-(2,2-dimethyl-propyl)-N-methyl-5-(trifluoromethyl)-1H-pyrrole-2-carboxylic acid amide]",inhibition at 3 µM,75 to 95%
"Cc1c(-c2ccc(OC(F)(F)F)cc2)c(C(=O)N2CCOC(C)(C)C2)n(Cc2ccccc2)c1C(F)(F)F [SC-242, [1-Benzyl-4-methyl-5-(trifluoromethyl)-3-[4-(trifluoromethyloxy)-phenyl]-1H-pyrrol-2-yl]-(2,2-dimethyl-morpholin-4-yl)-methanone]",inhibition at 3 µM,75 to 95%
"Cc1c(-c2ccc(F)c(Cl)c2)c(C(=O)N(C)CC(C)(C)C)n(Cc2ccccc2)c1C(F)(F)F [SC-256, 1-Benzyl-3-(3-chloro-4-fluoro-phenyl)-N-(2,2-dimethyl-propyl)-N,4-dimethyl-5-(trifluoromethyl)-1H-pyrrole-2-carboxylic acid amide]",inhibition at 3 µM,30 to 40%
"CN(CC(C)(C)S(C)(=O)=O)C(=O)c1c(-c2ccc(Cl)cc2)cc(C(F)(F)F)n1Cc1ccccc1 [SC-92, 1-Benzyl-3-(4-chlorophenyl)-N-methyl-N-(2-methyl-2-methylsulfonyl-propyl)-5-(trifluoromethyl)-1H-pyrrole-2-carboxylic acid amide]",inhibition at 3 µM,> 95%
"Cc1c(-c2ccc(Cl)cc2)c(C(=O)N(C)CC2CCC[C@H]2O)n(Cc2ccccc2)c1C(F)(F)F (stereo partly drawn) [SC-136, 1-Benzyl-3-(4-chlorophenyl)-N-[[(2R)-2-hydroxy-cyclopentyl]-methyl]-N,4-dimethyl-5-(trifluoromethyl)-1H-pyrrole-2-carboxylic acid amide]",inhibition at 3 µM,> 95%
"CC(=O)N1CCN(C(=O)c2c(-c3ccc(Cl)cc3)cc(C(F)(F)F)n2Cc2ccccc2)CC1 [SC-209, 1-[4-[1-Benzyl-3-(4-chlorophenyl)-5-(trifluoromethyl)-1H-pyrrole-2-carbonyl]-piperazin-1-yl]-ethanone]",inhibition at 3 µM,> 95%
"COc1cccc(-n2c(C(=O)N3CC(F)(F)C3)c(-c3ccc(Cl)cc3)c(C)c2C(F)(F)F)c1 [SC-32, [3-(4-Chlorophenyl)-1-(3-methoxyphenyl)-4-methyl-5-(trifluoromethyl)-1H-pyrrol-2-yl]-(3,3-difluoro-azetidin-1-yl)-methanone]",inhibition at 3 µM,75 to 95%
